Test results published in US6441023B1 (American Home Products Corporation, priority 1997, dated 2002).

How the values were obtained:
Assay type in all cases: biochemical
MMP 9 = biological target: T1, MMP 9 (Homo sapiens, UniProt P14780); assay: In vitro gelatinase assay (human neutrophil gelatinase B); settings: for IC50: read-out: MMP 9 IC 50
T1 construct: from tissue; host or cells: human neutrophils
Experimental: The assay is based on the cleavage of the thiopeptide substrate ((Ac-Pro-Leu-Gly(2 mercapto-4 methyl-pentanoyl)-Leu-Gly-OEt), Bachem Bioscience) by the enzyme, gelatinase, releasing the substrate product which reacts calorimetrically with DTNB ((5,5′-dithio-bis(2-nitro-benzoic acid)). The enzyme activity is measured by the rate of the color increase.
The thiopeptide substrate is made up fresh as a 20 mM stock in 100% DMSO and the DTNB is dissolved in 100% DMSO as a 100 mM stock and stored in dark at room temperature. Both the substrate and DTNB are diluted together to 1 mM with substrate buffer (50 mM HEPES pH 7.5, 5 mM CaCl2) before use. The stock of human neutrophil gelatinase B is diluted with assay buffer (50 mnM HEPES pH 7.5, 5 mM CaCl2, 0.02% Brij) to a final concentration of 0.15 mnM.
The increase in OD405 is plotted and the slope of the line is calculated which represents the reaction rate.

TACE = biological target: T2, TACE (Homo sapiens, UniProt P78536); assay: Procedure for measuring TACE inhibition; design: TACE % inhibition: dose or concentration left out as unconfirmed; settings: for IC50: read-out: TACE IC 50
T2 construct: purchased Immunex
T2 sequence (P78536 215-824): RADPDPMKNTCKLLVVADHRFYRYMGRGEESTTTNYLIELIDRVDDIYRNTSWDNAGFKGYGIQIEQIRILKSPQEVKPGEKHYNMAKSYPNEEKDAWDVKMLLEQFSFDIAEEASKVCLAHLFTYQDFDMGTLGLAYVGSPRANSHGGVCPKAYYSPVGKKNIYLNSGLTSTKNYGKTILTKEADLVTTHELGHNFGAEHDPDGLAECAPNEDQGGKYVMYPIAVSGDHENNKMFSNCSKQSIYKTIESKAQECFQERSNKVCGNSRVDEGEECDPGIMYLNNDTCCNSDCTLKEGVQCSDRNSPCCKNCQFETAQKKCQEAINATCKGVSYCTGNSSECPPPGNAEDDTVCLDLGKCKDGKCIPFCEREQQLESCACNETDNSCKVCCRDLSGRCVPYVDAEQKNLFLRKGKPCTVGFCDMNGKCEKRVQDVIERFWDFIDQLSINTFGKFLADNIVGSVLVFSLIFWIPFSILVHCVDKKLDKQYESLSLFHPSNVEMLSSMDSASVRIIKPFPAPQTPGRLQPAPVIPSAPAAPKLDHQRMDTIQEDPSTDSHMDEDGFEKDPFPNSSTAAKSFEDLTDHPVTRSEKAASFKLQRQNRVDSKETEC
Experimental: Using 96-well black microtiter plates, each well receives a solution composed of 10 μL TACE (Inmunex, final concentration 1 μg/mL), 70 μL Tris buffer, pH 7.4 containing 10% glycerol (final concentration 10 mM), and 10 μL of test compound solution in DMSO ([…], DMSO concentration <1%) and incubated for 10 minutes at room temperature. The reaction is initiated by addition of a fluorescent peptidyl substrate (final concentration 100 μM to each well and then shaking on a shaker for 5 sec.
The reaction is read (excitation 340 nm, emission 420 nm) for 10 min. and the increase in fluorescence over time is plotted as a linear line. The slope of the line is calculated and represents the reaction rate.
The mean (xtsem) of the control rate is calculated and compared for statistical significance (p<0.05) with drug-treated rates using Dunnett's multiple comparison test.

MMP 13 = MMP 13 (Homo sapiens, UniProt P45452); assay: MMP 13 inhibition (manual); settings: for IC50: read-out: MMP 13 IC 50
MMP 1 = biological target: T3, MMP 1 (Homo sapiens, UniProt P03956); assay: In vitro collagenase assay (human recombinant fibroblast collagenase); settings: for IC50: read-out: MMP 1 IC 50
T3 construct: human recombinant fibroblast collagenase (truncated, mw=18,828, WAR, Radnor)
T3 sequence (P03956 100-269 limits assumed): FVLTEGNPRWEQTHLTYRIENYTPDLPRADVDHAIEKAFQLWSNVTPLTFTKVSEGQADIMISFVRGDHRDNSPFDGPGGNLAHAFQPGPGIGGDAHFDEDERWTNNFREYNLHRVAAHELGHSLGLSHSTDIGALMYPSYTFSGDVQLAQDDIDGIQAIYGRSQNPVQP
Experimental: The assay is based on the cleavage of a peptide substrate ((Dnp-Pro-Cha-Gly-Cys(iNe)-His-Ala-Lys(NMa)-NH2), Peptide International, Inc.) by collag,enase releasing the fluorescent NMa group which is quantitated on the fluorometer. Dnp quenches the NiIa fluorescence in the intact substrate. […] Substrate is dissolved in methanol and stored frozen in 1 mM aliquots. Collagenase is stored frozen in buffer in 25 µM aliquots. For the assay, substrate is dissolved in HCBC buffer to a final concentration of 10 μM and collagenase to a final concentration of 5 nM. Compounds are dissolved in methanol, DMSO, or HCBC. The methanol and DMSO are diluted in HCBC to <1.0%. Compounds are added to the 96 well plate containing enzyme and the reaction is started by the addition of substrate.
The slope of the line is calculated and represents the reaction rate.
The mean (x±sem) of the control rate is calculated and compared for statistical significance (p<0.05) with drug-treated rates using Dunnett's multiple comparison test.

T1 sequence (P14780 94-707): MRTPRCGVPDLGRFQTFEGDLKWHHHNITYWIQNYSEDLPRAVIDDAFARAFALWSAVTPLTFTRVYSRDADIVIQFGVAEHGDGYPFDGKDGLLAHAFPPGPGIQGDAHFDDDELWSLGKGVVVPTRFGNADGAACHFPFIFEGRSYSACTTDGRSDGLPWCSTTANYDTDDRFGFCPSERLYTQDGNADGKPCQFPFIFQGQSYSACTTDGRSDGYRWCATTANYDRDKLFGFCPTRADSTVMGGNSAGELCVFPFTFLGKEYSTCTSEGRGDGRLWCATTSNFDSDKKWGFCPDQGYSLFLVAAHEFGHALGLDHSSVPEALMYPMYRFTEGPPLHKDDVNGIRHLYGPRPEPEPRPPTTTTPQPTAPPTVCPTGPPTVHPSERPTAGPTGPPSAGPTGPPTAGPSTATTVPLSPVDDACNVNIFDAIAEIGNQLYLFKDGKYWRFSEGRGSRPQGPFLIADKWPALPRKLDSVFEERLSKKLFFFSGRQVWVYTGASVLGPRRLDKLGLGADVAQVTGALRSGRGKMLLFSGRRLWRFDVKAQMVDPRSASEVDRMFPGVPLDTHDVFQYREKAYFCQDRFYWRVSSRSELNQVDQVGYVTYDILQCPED

Compound	TACE % inhibition at 1 micromolar (TACE) [%]	IC50 (MMP 9) [µM]	IC50 (TACE) [µM]	further results
1-(Bromo-benzyl)-4-(4-methoxy-benzenesulfonyl)-piperidine-4-carboxylic acid hydroxyamide [Example 90]	–	0.0103	0.0719	–
2-(4-Fluoro-benzenesulfonyl)-2-but-2-ynyl-hexynoic acid hydroxyamide [Example 78]	24.58	0.56	–	IC50 (MMP 13): 0.034 µM
2-[8-(1-carboxy-ethanesulfonyl)-octane-1-sulfonyl]-propionic acid hydroxyamide [Example 49]	–	–	–	MMP 13 % inhibition at 1 micromolar (MMP 13; 1 micromolar): 54.6%; MMP 1 % inhibition at 1 micromolar (MMP 1; 1 micromolar): 10.1%; MMP 9 % inhibition at 1 micromolar (MMP 9; 1 micromolar): 23.7%
5-Methyl-2-(3-methyl-but-2-enyl)-2-(toluene-4-sulfonyl)-hexenoic acid hydroxyamide [Example 42]	–	0.0509	0.0365	IC50 (MMP 13): 0.0062 µM
COc1ccc(SC(C)(Cc2ccccc2)C(=O)NO)cc1 (centres unmarked) [Example 1, N-Hydroxy-2-(4-methoxy-phenylsulfanyl)-2-methyl-3-phenyl-propionamnide]	31.62	0.56	–	IC50 (MMP 13): 0.193 µM
COc1ccc(S(=O)(=O)C(C)(Cc2ccc(OCCN(C(C)C)C(C)C)cc2)C(=O)NO)cc1 (centres unmarked) [Example 20, N-Hydroxy-2-(4-methoxy-benzenesulfonyl)-2-methy-3-[4-(2-N,N-diisopropylamino-ethoxy)-phenyl]-propionamide]	31	–	–	–
COc1ccc(S(=O)(=O)C(C)(Cc2cccc(OCCN3CCOCC3)c2)C(=O)NO)cc1 (centres unmarked) [Example 30, N-Hydroxy-2-(4-methoxy-benzenesulfonyl)-2-methyl-3-[3-(2-morpholin-1-yl-ethoxy)-phenyl]-propionamide]	25.2	–	–	–
COc1ccc(S(=O)(=O)C(CCCCOc2ccccc2)(Cc2cccnc2)C(=O)NO)cc1 (centres unmarked) [Example 68, 2-(4-Methoxy-benzenesulfonyl)-6-phenoxy-2-pyridin-3-yhnethyl-hexanoic acid hydroxyamide]	–	0.029	0.522	IC50 (MMP 13): 0.027 µM
CCCCCC#CCC(CC#CCCCCC)(C(=O)NO)S(=O)(=O)c1ccc(OC)cc1 [Example 71, 2-(4-methoxy-benzenesulfonyl)-2-oct-2-ynyl-decffynoic acid hydroxyamide]	42.21	–	–	–
COc1ccc(S(=O)(=O)C(CC=C(C)C)(CC=C(C)C)C(=O)NO)cc1 [Example 79, 2-(4-Methoxy-benzenesulfonyl)-5-methyl-2-(3-methyl-but-2-enyl)-hexenoic acid hydroxyamide]	–	0.00054	0.805	IC50 (MMP 1): 0.025 µM
CCCCCCC(Sc1cccc(C(=O)NO)c1)C(=O)NO (centres unmarked) [Example 184]	–	–	–	TACE % inhibition (TACE): 24.8%
CCCCCCC(C(=O)NO)[S+]([O-])c1cccc(C(=O)NO)c1 (centres unmarked) [Example 188, 3-(1-Hydroxycarbamoyl-heptylsulfmyl)-benzoicacid hydroxyamide]	–	–	–	TACE % inhibition at 1 µM (TACE): 16.2%
CCCCOc1ccc(S(=O)(=O)C2(C(=O)NO)CCN(Cc3ccc(OCCN4CCCCC4)cc3)CC2)cc1 [Example 242, 4-(4-Butoxy-benzenesulfonyl)-1-[4-(2-piperidin-1-yl-ethoxy)-benzyl]-piperidine-4-carboxylic acid hydroxyamide]	–	0.002	0.581	IC50 (MMP 1): 1.95 µM
CCCCOc1ccc(S(=O)(=O)C2(C(=O)NO)CCN(Cc3cccc(OCCN4CCOCC4)c3)CC2)cc1 [Example 243, 4(4-Butoxy-benzenesulfonyl)-1-[3-(2-morpholinyl-1-ylthoxy)-benzyl]-piperidine-4-carboxylic acid hydroxyamide]	–	–	0.506	IC50 (MMP 1): 2.18 µM
CN1CCC(C(=O)NO)(S(=O)(=O)c2ccc(Oc3ccc(Cl)cc3)cc2)CC1 [Example 249, 4-[4-(4-chloro-phenoxy)-benzenesulfonyl]1-methyl-piperidine-4-carboxylic acid hydroxyamide]	–	0.002	0.27	IC50 (MMP 13): 0.0016 µM
O=C(NO)C1(S(=O)(=O)c2ccc(Oc3ccc(Cl)cc3)cc2)CCN(Cc2ccccc2)CC1 [Example 252, 1-Benzyl-4-[4-(4-chloro-phenoxy)-benzenesulfonyl]-piperidine-4-carboxylic acid hydroxyamide]	–	0.0011	–	IC50 (MMP 13): 0.0009 µM; IC50 (MMP 1): 0.801 µM
CC(C)CCOc1ccc(S(=O)(=O)C2(C(=O)NO)CCN(Cc3ccccc3)CC2)cc1 [Example 255, 1-Benzyl-4-[4-(3-methyl-butoxy)-benzenesulfonyl]-piperidine-4-carboxylic acid hydroxyamide]	–	–	0.565	IC50 (MMP 13): 0.0015 µM
CCCCOc1ccc(S(=O)(=O)C2(C(=O)NO)CCN(Cc3cccc(OC)c3)CC2)cc1 [Example 260, 4-(4-butoxy-benzenesulfonyl)-1-(3-methoxy-benzyl)-piperidine-4-carboxylic acid hydroxyamide]	–	0.0029	0.272	IC50 (MMP 1): 1.49 µM
COc1ccc(S(=O)(=O)C2(C(=O)NO)CCN(Cc3ccc(-c4cccs4)cc3)CC2)cc1 [Example 261, 4-(4-Methoxy-benzenesulfonyl)-1-(thiophen-2-yl-benzyl)-piperidine-4-carboxylic acid hydroxyamide]	–	0.0109	–	IC50 (MMP 1): 0.513 µM
COc1ccc(S(=O)(=O)C2(C(=O)NO)CCN(Cc3ccc(-c4ccccn4)cc3)CC2)cc1 [Example 262, 4-(4-methoxy-benzenesulfonyl)-1-(4-pyridin-2-yl-benzyl)-piperidine-4-carboxylic acid hydroxyamide]	–	0.0061	0.298	IC50 (MMP 1): 0.422 µM
Cc1ccc(CN2CCC(C(=O)NO)(S(=O)(=O)c3ccc(OCc4ccc(Cl)cc4)cc3)CC2)cc1 [Example 266, [4-(4-Chloro-benzyloxy)-benzenesulfonyl]-1-(4-methylbenzyl)-piperidine-4-carboxylic acid hydroxamide]	–	0.006	0.421	IC50 (MMP 13): 0.0057 µM
(1-Hydroxycarbamoyl-propane-1 -sulfanyl)-propionic acid hydroxyamide [Example 122]	–	–	–	TACE % inhibition at 1 µM (TACE): 3.1%

Further lines, with some results ahead:

TACE % inhibition at 1 micromolar (TACE) [%]	Compound	IC50 (MMP 9) [µM]	IC50 (TACE) [µM]	further results
25	COc1ccc([S+]([O-])C(C)(Cc2ccccc2)C(=O)NO)cc1 (centres unmarked) [Example 5, N-Hydroxy-2-(4-methoxy-benzenesulfmyl)-2-methyl-3-phenyl-propionamide]	–	–	–
20.30	COc1ccc(S(=O)(=O)C(Cc2ccccc2)C(=O)NO)cc1 (centres unmarked) [Example 9, N-Hydroxy-2-(4-methoxy-benzenesulfonyl)-3-phenyl-propionarmide]	–	–	–
40.6	COc1ccc(S(=O)(=O)C(C)(Cc2ccc(OCCCN3CCN(c4cccc(Cl)c4)CC3)cc2)C(=O)NO)cc1 (centres unmarked) [Example 23, 3-(4-{3-[4-(3-Chloro-phenyl)-piperain-1-yl]-propoxy}-phenyl)-N-hydroxy-2-(4-methoxy-benzenesulfonyl)-2-methyl-propionamide]	–	–	–
51.64	CC#CCC(CC#CC)(C(=O)NO)S(=O)(=O)c1ccc(OC)cc1 [Example 72, 2-(4-Methoxy-benzenesulfonyl)-2-but-2-ynyl-hextynoic acid hydroxyamide]	–	–	–
20.17	C#CCC(CC#C)(C(=O)NO)S(=O)(=O)c1ccc(OC)cc1 [Example 73, 2-(4-Methoxy-benzenesulfonyl)-2-prop-2-ynyl-pentynoic acid hydroxyamde]	–	–	–
50.2	COc1ccc(S(=O)(=O)C2(C(=O)NO)CCN(CCCOc3ccccc3)CC2)cc1 [Example 105, 4-(4-Methoxy-benzenesulfony)-1-(3-phenoxy-propyl)-pipendine-4-carboxyllc acid hydroxyamide]	–	–	–
